21 compounds from ChEMBL document CHEMBL4251607, “Antagonists of the adenosine A2A receptor based on a 2-arylbenzoxazole scaffold: Investigation of the C5- and C7-positions to enhance affinity” (Eur J Med Chem, 2018) can be followed below.

Structures are written as SMILES. In brackets after ≈: the same amount, converted by molar mass.

The target in one data set is T1, Adenosine receptor A2a (Homo sapiens, UniProt P29274). Description: Antagonist activity at adenosine A2A receptor (unknown origin).
T1 sequence (P29274 whole entry): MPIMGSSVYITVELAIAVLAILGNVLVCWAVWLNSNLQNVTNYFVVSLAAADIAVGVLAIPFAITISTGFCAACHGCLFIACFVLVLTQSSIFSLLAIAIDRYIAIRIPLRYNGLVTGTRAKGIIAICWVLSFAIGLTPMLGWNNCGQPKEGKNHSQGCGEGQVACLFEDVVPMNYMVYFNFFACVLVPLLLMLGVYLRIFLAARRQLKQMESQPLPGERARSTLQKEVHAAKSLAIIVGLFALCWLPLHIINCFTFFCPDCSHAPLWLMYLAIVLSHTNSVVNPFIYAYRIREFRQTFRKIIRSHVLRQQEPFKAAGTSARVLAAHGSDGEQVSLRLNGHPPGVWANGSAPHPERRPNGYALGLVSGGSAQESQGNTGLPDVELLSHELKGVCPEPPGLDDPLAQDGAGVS
Conditions: not given
`COCCOc1ccc(N2CCN(CCn3ncc4c3nc(N)n3nc(-c5ccco5)nc43)CC2)cc1` [PRELADENANT] gave a Ki of 0.5 nM.

Another data set addresses T2, Adenosine receptor A3 (Homo sapiens) (UniProt P0DMS8).
T2 sequence (whole entry): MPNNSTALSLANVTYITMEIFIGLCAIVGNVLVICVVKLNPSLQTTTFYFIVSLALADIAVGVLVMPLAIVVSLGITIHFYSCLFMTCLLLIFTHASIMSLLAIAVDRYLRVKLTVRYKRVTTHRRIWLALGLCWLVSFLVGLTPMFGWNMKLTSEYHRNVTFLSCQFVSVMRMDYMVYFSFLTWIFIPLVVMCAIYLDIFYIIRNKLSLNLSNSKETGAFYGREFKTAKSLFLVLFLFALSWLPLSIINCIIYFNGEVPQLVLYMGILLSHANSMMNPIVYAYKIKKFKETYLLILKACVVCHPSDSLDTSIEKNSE
The experiment in a line: Displacement of [125I]ABMECA from human adenosine A3 receptor expressed in HEK293 cell membranes at 10 uM relative to control.
Conditions: not given
Compound `Nc1cc(-c2ccco2)c2oc(-c3ccco3)nc2c1` returned an inhibition of 90%.

The subject of the next data set is SH-SY5Y. The experiment in a line: Cytotoxicity against human SH-SY5Y cells assessed as cell death at 10 uM after 72 hrs by MTT assay relative to control. The format is cell-based.
Conditions: not given
For `O=C(CN1CCCCC1)Nc1ccc2oc(-c3ccco3)nc2c1`, the Activity was determined as 0%.
The same measure, in the same setting: the value for `O=C(CCN1CCc2ccccc2C1)Nc1cc(-c2ccco2)c2oc(-c3ccco3)nc2c1` was 37%.

Test system in the next data set: not listed separately
Description: Apparent permeability from basolateral to apical side in human Caco2 cells at 10 uM after 40 mins. The note with it: Caco-2.
Regarding `O=C(CCN1CCOCC1)Nc1cc(-c2ccco2)c2oc(-c3ccco3)nc2c1`, the Papp B→A at 40 min, 10 µM was determined as 1.6 ×10⁻⁶ cm/s.
Same read-out and setting: the value for `Nc1cc(-c2ccco2)c2oc(-c3ccco3)nc2c1` was 37 ×10⁻⁶ cm/s; that for `O=C(CCN1CCCCC1)Nc1cc(-c2ccco2)c2oc(-c3ccco3)nc2c1` was 1.2 ×10⁻⁶ cm/s.

Test system in another data set: not listed separately
The experiment in a line: Half life in human liver microsomes at 0.1 uM. The note with it: liver microsomes.
As to `Nc1cc(-c2ccco2)c2oc(-c3ccco3)nc2c1`, the half-life at 0.1 µM was > 1 h.
On the same count and under the same terms, the value for `O=C(CCN1CCc2ccccc2C1)Nc1cc(-c2ccco2)c2oc(-c3ccco3)nc2c1` was > 1 h; that for `O=C(CCN1CCCCC1)Nc1cc(-c2ccco2)c2oc(-c3ccco3)nc2c1` was 0.683 h.

The data set is the same for the next values; noted with them: microsomes.
`O=C(CCN1CCOCC1)Nc1cc(-c2ccco2)c2oc(-c3ccco3)nc2c1`: the half-life at 0.1 µM is > 1 h.

Test system in a further data set: not listed separately
Description: in vitro. The note with it: human, liver microsomes.
Description: Intrinsic clearance in human liver microsomes at 0.1 uM
As to `Nc1cc(-c2ccco2)c2oc(-c3ccco3)nc2c1`, the intrinsic clearance (microsomal CLint) at 0.1 µM was < 115 µL/min/mg.
Still for that read-out and setting: the result for `O=C(CCN1CCc2ccccc2C1)Nc1cc(-c2ccco2)c2oc(-c3ccco3)nc2c1` reads < 115 µL/min/mg; that for `O=C(CCN1CCCCC1)Nc1cc(-c2ccco2)c2oc(-c3ccco3)nc2c1`, 172 µL/min/mg.

The same data set, now with this note: human, microsomes.
Consider `O=C(CCN1CCOCC1)Nc1cc(-c2ccco2)c2oc(-c3ccco3)nc2c1`, for which the microsomal CLint at 0.1 µM is < 115 µL/min/mg.

Test system in the next data set: not listed separately
The experiment in a line: physchem. The note with it: PBS, pH 7.4.
Turning to `O=C(CCN1CCOCC1)Nc1cc(-c2ccco2)c2oc(-c3ccco3)nc2c1`, the solubility at 24 h was 173 µM (≈ 70.5 µg/mL).
The same measure, in the same setting: the value for `Nc1cc(-c2ccco2)c2oc(-c3ccco3)nc2c1` was 31 µM (≈ 8.25 µg/mL); that for `O=C(CCN1CCc2ccccc2C1)Nc1cc(-c2ccco2)c2oc(-c3ccco3)nc2c1` was 8 µM (≈ 3.63 µg/mL).
As to `O=C(CCN1CCCCC1)Nc1cc(-c2ccco2)c2oc(-c3ccco3)nc2c1`, the concentration in solution (solubility at 24 h) was 165 µM (≈ 66.9 µg/mL).

A further data set concerns the target T3, Adenosine receptor A2b (Homo sapiens) (UniProt P29275).
T3 sequence (whole entry): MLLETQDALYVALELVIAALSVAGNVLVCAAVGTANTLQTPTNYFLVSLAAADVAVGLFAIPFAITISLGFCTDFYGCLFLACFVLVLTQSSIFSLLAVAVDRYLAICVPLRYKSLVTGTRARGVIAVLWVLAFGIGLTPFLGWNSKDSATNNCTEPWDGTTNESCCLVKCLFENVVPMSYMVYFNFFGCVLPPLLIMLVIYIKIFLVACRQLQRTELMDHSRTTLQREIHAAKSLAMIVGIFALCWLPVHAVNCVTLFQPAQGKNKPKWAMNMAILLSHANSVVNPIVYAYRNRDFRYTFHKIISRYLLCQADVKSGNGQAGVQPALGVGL
The experiment in a line: Displacement of [3H]CPX from human adenosine A2B receptor expressed in HEK293 cell membranes at 10 uM relative to control.
Conditions: not given
As to `Nc1cc(-c2ccco2)c2oc(-c3ccco3)nc2c1`, the inhibition was found to be 94%.

The next data set addresses T4, Adenosine receptor A1 (Homo sapiens, UniProt P30542).
T4 sequence (P30542 whole entry): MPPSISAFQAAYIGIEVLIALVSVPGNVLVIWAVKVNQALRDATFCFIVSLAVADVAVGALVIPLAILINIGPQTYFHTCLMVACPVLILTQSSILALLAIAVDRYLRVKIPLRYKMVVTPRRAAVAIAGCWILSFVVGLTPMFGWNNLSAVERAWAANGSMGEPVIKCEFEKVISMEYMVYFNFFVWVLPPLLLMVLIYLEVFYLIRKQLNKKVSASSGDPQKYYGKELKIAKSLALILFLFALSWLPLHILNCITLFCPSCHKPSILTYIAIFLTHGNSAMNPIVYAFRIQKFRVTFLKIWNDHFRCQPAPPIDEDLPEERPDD
The experiment in a line: Displacement of [3H]DPCPX from human adenosine A1 receptor expressed in CHO cell membranes.
Conditions: not given
In the case of `Nc1cc(-c2ccco2)c2oc(-c3ccco3)nc2c1`, the affinity, expressed as Ki, was 7.7 nM.

Another data set concerns the target T1, Adenosine receptor A2a. The experiment in a line: Displacement of [3H]-ZM241385 from human adenosine A2A receptor expressed in CHO cell membranes after 1 hr by TopCount microplate scintillation counting method.
Conditions: not given
For `O=C(CN1CCCCC1)Nc1cc(-c2ccco2)c2oc(-c3ccco3)nc2c1`, the inhibition constant Ki stood at 210 nM.
The same measure, in the same setting: the result for `Nc1cc(-c2ccccn2)c2oc(-c3ccco3)nc2c1` reads 135 nM.
Still for that read-out and setting: the value for `Nc1cc(NC(=O)CN2CCCCC2)cc2nc(-c3ccco3)oc12` was 480 nM; that for `Cc1ccc(-c2cc(N)cc3nc(-c4ccco4)oc23)cc1` was > 10000 nM.
The same measure, in the same setting: the value for `O=C(CCCN1CCCCC1)Nc1cc(-c2ccco2)c2oc(-c3ccco3)nc2c1` was 98 nM; that for `O=C(CCN1CCOCC1)Nc1cc(-c2ccco2)c2oc(-c3ccco3)nc2c1` was 90 nM.
`CCOCCOc1ccc(N2CCN(CCC(=O)Nc3cc(-c4ccco4)c4oc(-c5ccco5)nc4c3)CC2)cc1`: the inhibition constant Ki was > 10000 nM.
Same read-out and setting: the value for `COc1ccc(-c2cc(N)cc3nc(-c4ccco4)oc23)cc1OC` was 90 nM.
The same measure, in the same setting: the result for `Nc1cc(-c2ccc(C(F)(F)F)cc2)c2oc(-c3ccco3)nc2c1` reads > 10000 nM; that for `Nc1cc(NC(=O)CN2CCCCC2)c2oc(-c3ccco3)nc2c1`, > 10000 nM.
Compound `Nc1cc(-c2ccco2)c2oc(-c3ccco3)nc2c1` yielded a Ki of 40 nM.
Same read-out and setting: the value for `Nc1cc(-c2cccs2)c2oc(-c3ccco3)nc2c1` was 71 nM; that for `O=C(CN1CCCCC1)Nc1ccc2oc(-c3ccco3)nc2c1` was 1000 nM.
On the same count and under the same terms, the value for `Nc1ccc2oc(-c3ccco3)nc2c1` was 10000 nM.
On the same count and under the same terms, the value for `Nc1cc(-c2ccc(F)cc2)c2oc(-c3ccco3)nc2c1` was 438 nM; that for `COc1ccc(-c2cc(NC(=O)CCN3CCc4ccccc4C3)cc3nc(-c4ccco4)oc23)cc1OC` was > 10000 nM.
Take `Nc1cc(N2CCOCC2)c2oc(-c3ccco3)nc2c1`: the Ki is > 10000 nM.
The same measure, in the same setting: the result for `Nc1cc(-c2ccccc2)c2oc(-c3ccco3)nc2c1` reads 202 nM.
`O=C(CCN1CCc2ccccc2C1)Nc1cc(-c2ccco2)c2oc(-c3ccco3)nc2c1` gave an inhibition constant Ki of 30 nM.
The compound `O=C(CCN1CCCCC1)Nc1cc(-c2ccco2)c2oc(-c3ccco3)nc2c1` had an inhibition constant (Ki) of 81 nM.

Test system in the next data set: not listed separately
The experiment in a line: Protein binding in human plasma at 10 uM after 4 hrs.
Conditions: not given
With `O=C(CCN1CCOCC1)Nc1cc(-c2ccco2)c2oc(-c3ccco3)nc2c1`, the free fraction (fraction unbound) at 4 h, 10 µM is 0.02.
Same read-out and setting: the value for `Nc1cc(-c2ccco2)c2oc(-c3ccco3)nc2c1` was 0.1; that for `O=C(CCN1CCc2ccccc2C1)Nc1cc(-c2ccco2)c2oc(-c3ccco3)nc2c1` was 0.001.
Compound `O=C(CCN1CCCCC1)Nc1cc(-c2ccco2)c2oc(-c3ccco3)nc2c1` showed a fraction unbound at 4 h, 10 µM of 0.02.

A further data set addresses T1, Adenosine receptor A2a. Description: Antagonist activity at human adenosine A2A receptor expressed in HEK293 cell membranes assessed as inhibition of […]-induced [35S]GTPgammaS binding preincubated for 10 mins followed by […] addition by TopCount scintillation counting method. The format is functional.
Conditions: not given
As to `O=C(CN1CCCCC1)Nc1cc(-c2ccco2)c2oc(-c3ccco3)nc2c1`, the IC50 was 486 nM.
As for `Nc1cc(NC(=O)CN2CCCCC2)cc2nc(-c3ccco3)oc12`, the half-maximal inhibitory concentration (IC50) came out at 250 nM.
Same read-out and setting: the result for `Nc1cc(-c2ccco2)c2oc(-c3ccco3)nc2c1` reads 70.6 nM.

The next data set relates to SH-SY5Y. Description: Cytotoxicity against human SH-SY5Y cells assessed as cell death after 72 hrs by MTT assay. The data set is classed as cell-based.
Conditions: not given
`O=C(CCN1CCOCC1)Nc1cc(-c2ccco2)c2oc(-c3ccco3)nc2c1`: the IC50 amounted to 77000 nM.
Consider `Nc1cc(-c2ccco2)c2oc(-c3ccco3)nc2c1`, for which the concentration for half-maximal inhibition (IC50) stood at 40000 nM.
Same read-out and setting: the value for `O=C(CCN1CCCCC1)Nc1cc(-c2ccco2)c2oc(-c3ccco3)nc2c1` was 9000 nM.

A further data set deals with T1, Adenosine receptor A2a. Description: Displacement of [3H]-ZM241385 from human adenosine A2A receptor expressed in HEK293 cell membranes after 1 hr by scintillation counting method.
Conditions: not given
Take `O=C(CN1CCCCC1)Nc1ccc2oc(-c3ccco3)nc2c1`: the Ki was determined as 1000 nM.
The same measure, in the same setting: the value for `Nc1ccc2oc(-c3ccco3)nc2c1` was 10000 nM.

Test system in another data set: not listed separately
Description: Apparent permeability from apical to basolateral side in human Caco2 cells at 10 uM after 40 mins. The note with it: Caco-2.
Regarding `O=C(CCN1CCOCC1)Nc1cc(-c2ccco2)c2oc(-c3ccco3)nc2c1`, the Papp A→B at 40 min, 10 µM was determined as 11 ×10⁻⁶ cm/s.
Same read-out and setting: the value for `Nc1cc(-c2ccco2)c2oc(-c3ccco3)nc2c1` was 77 ×10⁻⁶ cm/s; that for `O=C(CCN1CCc2ccccc2C1)Nc1cc(-c2ccco2)c2oc(-c3ccco3)nc2c1` was 0.2 ×10⁻⁶ cm/s; that for `O=C(CCN1CCCCC1)Nc1cc(-c2ccco2)c2oc(-c3ccco3)nc2c1` was 2.3 ×10⁻⁶ cm/s.
